What was measured:
[1] = test system: ANCA-associated systemic vasculitis; experiment: Example II: multi-cycle subcutaneous DSG treatment of a patient with M. Wegener; format: in vivo, human
Experimental: They had also been given various treatments including CYC+OCS, AZA and MMF with frequent relapses.
Therefore, DSG was administered subcutaneously as described in Example I (0,5 mg/kg/d).

[2] = test system: MRL/MpJ-lpr/lpr (MRL/lpr) mice; experiment: Example III: MRL/lpr mouse model of SLE-like autoimmune disease, continuous versus cycle treatment; format: in vivo; details: for levels of white blood cells in peripheral blood: control about 18,000/μl
From the text: MRL/lpr mice develop systemic lupus erythematosus (SLE)-like lesions. The disease is characterized by massive lymphadenopathy, development of antibodies to self antigens, and glomerulonephritis. Therefore, these mice offer a good model for autoimmune disease.
Male MRL/MpJ-lpr/lpr (MRL/lpr) mice were obtained from Charles River Japan (Atsugi, Kanagawa, Japan). The mice were maintained in specific pathogen-free conditions.
DSG was obtained and prepared as described in Example I.
DSG was administered from week 13 through week 20 (58 days):
(A) i.v. at daily doses of 1.5 mg/kg or
(B) in three treatment cycles of 10 days with 1.5 mg/kg DSG i.v. daily with an interphase (no DSG) of 14 days after the first and second cycle.
Each treatment group (A and B) consisted of 10 mice. A set of control MRL/lpr-mice (10) receiving saline were included.
At the end of the experiment (day 59), the weight of the lymph nodes, serum anti-DNA titer and BUN (blood urea nitrogen) were measured as described by Nemoto, K. et al., J. Antibiotics, (1990), 1590–1591. The levels of white blood cells in peripheral blood were decreased both in groups A and B to about 6,000/μl compared to about 18,000/μl in the control group.

[3] = test system: ANCA-associated vasculitis; experiment: General clinical findings on DSG administration and cycle treatment of vasculitis
[4] = test system: ANCA-associated systemic vasculitis; experiment: Example I: multi-cycle subcutaneous DSG treatment of a patient with Morbus Wegener
Experimental: The DSG used was a Gusperimus hydrochloride preparation (100 mg/vial) (Spanidin inj.) of Nippon Kayaku Co. Ltd., Tokyo, Japan. […] The lyophilized DSG (100 mg) was reconstituted with physiological saline and admininstered at 0,5 mg/kg/d subcutaneously over 19 days. […] The levels of white blood cells and neutrophils were regularity monitored.

[5] = test system: ANCA-associated systemic vasculitis; details: cyclophosphamide (CYC) and OCS, after 4 weeks
[6] = group B (cycle treatment) compared to group A (continuous), day 59

## N=C(N)NCCCCCCC(=O)NC(O)C(=O)NCCCCNCCCN (stereo not shown) [DSG, 15-deoxyspergualin]
[1]; after two treatment cycles
  remission: complete remission
[1]; after two treatment cycles, initial BVAS of 19
  BVAS: 0
[1]; at start of treatment cycles
  neutrophil counts: above 3,500 /μl
  white blood cell counts: above 4,000 /μl
[1]; at termination of the two cycles
  neutrophil counts: 2,000–3,000 /μl
[1]; at termination of the two cycles (14 and 21 days), 0,5 mg/kg/d s.c.
  white blood cell counts: 3,000–4,000 /μl
[2]; cycle treatment versus continuous daily administration of an equal dosage
  suppression of the development of SLE-like lesions: more efficient
[2]; group A: 1.5 mg/kg i.v. daily for 58 days, day 59
  levels of white blood cells in peripheral blood: about 6,000 /μl
[2]; [6]
  BUN (blood urea nitrogen): significantly lower level
  serum anti-DNA titer: significantly lower level
  weight of the mesenteric, axillary, elbow, inguinal, submaxillary and iliac lymph nodes: more pronounced reduction
[2]; group B: three 10-day cycles of 1.5 mg/kg i.v. daily, 14-day interphases, day 59
  levels of white blood cells in peripheral blood: about 6,000 /μl
[3]
  local tolerability of subcutaneous injection: without local complications
[4]; after the first two treatment cycles
  clinical condition: significant improvement
[4]; after the third cycle
  remission by clinical judgement and BVAS: complete remission
[4]; after the third cycle, BVAS before DSG-treatment 12
  BVAS (Birmingham vasculitis activity score): 0
[4]; day 19, end of first cycle, 0,5 mg/kg/d s.c. over 19 days, 12,300 WBC/μl on day 1
  white blood cell count in peripheral blood: 3,460 WBC/μl
[4]; day 33, recovery after DSG discontinued on day 19
  white blood cell count: 9,600 /μl
[4]; day 52, end of second treatment cycle
  WBC count: 3,500 /μl
[4]; day 65, after treatment rest from day 52
  WBC count: 11,500 /μl
[4]; day 66, start of third treatment cycle
  WBC count: 12,000 /μl
[4]; day 85, end of third treatment cycle
  WBC count: 3,800 /μl
[4]; during all treatment cycles
  adverse side effects of DSG: no adverse side effects
  tolerability: well tolerated
[4]; first treatment cycle and recovery to day 33
  side effects: No side effects were observed
[4]; tapered from initially 16 mg under DSG cycle treatment
  methylprednisolone dose after steroid taper: 6 mg
[4]; when the subsequent cycle was started
  neutrophil counts: above 4,000 /μl

## O=P1(N(CCCl)CCCl)NCCCO1 (stereo not shown) [cyclophosphamide]
[5]
  adverse effect of prior treatment: toxic hepatitis

Reference: patent US7153887B1, “Use of 15-deoxyspergualin for the treatment of ANCA associated vasculitis” (Euro Nippon Kayaku GmbH, priority 1999, dated 2006)
